Test results published in US5032597A, “Method of using phenylquinolinecarboxylic acids and derivatives for lymthoid leukemia treatment in a mammal” (priority 1987, dated 1991).
Converted amounts (≈) assume the structure as drawn. “And” between values parts separate entries of the source, which are not always exact repeats. Equal values may be shown once. Read-outs that look alike come from different tables or passages of the source.

Key:
[1] = tested on: human colon carcinoma cells HCT-15; assay: Human colon tumor test in vitro, HCT-15 cell growth inhibition; type: cell-based; settings: HCT-15 cells, compound day 1 to day 4; for in vitro HCT-15 ID50 (50 percent inhibition of number of doublings): 4320 min; for IC50: Homo sapiens, HCT-15, 72 h, read-out: in vitro HCT-15 ID50 (50 percent inhibition of number of doublings)
Description: The compound of this invention were also tested for their ability to inhibit the growth of human colon carcinoma cells in vitro.
The human colon carcinoma cells, designated HCT-15, were derived from a specimen of an adenocarcinoma of human colon removed during surgery. The cells were grown in Roswell Park Medical Institute (RPMI) Medium 1640 supplemented with 10% heat inactivated fetal calf serum, penicillin (100 units/ml), streptomycin (100 μg/ml), gentamicin (20 μg/ml), fungizone (25 μg/ml), 0.075 percent sodium bicarbonate, […] 4-(2-hydroxyethyl)-1-piperazineethanesulfonic acid and […] N-tris(hydroxymethyl)methylglycine. […] On day 1 cells from sample dishes were harvested using trypsin (0.25%) treatment and counted with a hemocytometer to determine the number of cells per dish at the time of the addition of the compounds. Compounds of this invention were added in varying concentrations to other cultures. On day 4, treated and control cultures were harvested by trypsin treatment and the number of cells was determined. The number of doublings for the control cells was determined from the cell numbers on days 1 and 4. The ID50, the concentration of compound required to inhibit by 50 percent the number of doublings, was then calculated from the dose-response curve in which cell numbers were plotted on log-log paper against compound concentrations in micrograms per ml.

L1210 leukemia = assay: Lymphoid Leukemia L1210, survival of tumored mice; type: in vivo, CD2F1 mice; settings: for response vs control in vivo at 50 mg/kg: 50 mg/kg i.p.; for response vs control in vivo at 400 mg/kg: 400 mg/kg i.p.; for response vs control in vivo at 12.5 mg/kg: 12.5 mg/kg i.p.
Description: The efficacy of the compounds of this invention against the transplanted mouse tumors was evaluated in test systems currently in use at the National Cancer Institute for the detection and assessment of anticancer activity. […] J. Cancer, 17, 129-142, (1981); Venditti, J. M., Seminars in Oncology, 8 (4) (1981); Goldin, A. and J. M. Venditti, in Recent Results in Cancer Research, 70, S. K. Carter and Y. Sakurai, Eds., Springer-Verlag, Berlin/Heidelberg, 1980].
The animals used in this test were CD2 F1 mice, all males weighing a minimum of 18 g and all within a 4 g weight range at the start of the test. The test group consisted of six mice. The tumor was implanted in each of the test mice by the intraperitoneal injection of 0.1 ml of diluted ascitic fluid containing 10^5 cells drawn from a mouse with L1210 leukemia. The test compounds were suspended in hydroxypropylcellulose or saline with Tween® 80 surfactant or dissolved in saline and injected intraperitoneally, at various doses, once daily for nine consecutive days starting on day one relative to the day of tumor inoculation (day 0). The control mice received injections of saline or hydroxypropylcellulose vehicle only. The mice were weighed and survivors were recorded on a regular basis for 30 days. The median survival time and the ratio of the median survival time for the treated (T) and control (C) mice was calculated. […] Drug effectiveness was assessed on the basis of the survival time. Results were expressed as a percentage of the control survival time (Median Survival Time: T/C ×100%). The criterion for effectiveness was determined by: T/C×100≥125 percent.

[2] = Mus musculus, L1210, ip, 720 h, 25 mg/kg i.p., nonoptimal Q1DX9 instead of Q3DX9, read-out: L1210 Leukemia % T/C (median survival time)
[3] = Mus musculus, L1210, ip, 720 h, read-out: L1210 Leukemia % T/C (median survival time)
[4] = Mus musculus, L1210, ip, 720 h, 100 mg/kg i.p., read-out: L1210 Leukemia % T/C (median survival time)
[5] = Mus musculus, L1210, ip, 720 h, 25 mg/kg i.p., read-out: L1210 Leukemia % T/C (median survival time)
[6] = Mus musculus, L1210, ip, 720 h, 75 mg/kg i.p., read-out: L1210 Leukemia % T/C (median survival time)
[7] = Mus musculus, L1210, ip, 720 h, nonoptimal Q1DX9 instead of Q3DX9, read-out: L1210 Leukemia % T/C (median survival time)

Row | Structure (SMILES) | in vitro HCT-15 ID50 (50 percent inhibition of number of doublings) [1] | IC50 [1] [µg/mL] | further results
1 | CCc1c(-c2ccc(C(C)CC)cc2)nc2ccc(F)cc2c1C(=O)O (stereo not shown) [Example 107] | 0.09 µg/mL | – | response vs control in vivo at 25 mg/kg (L1210 leukemia; [2]): 116%
2 | Cc1c(-c2ccc(-c3ccc(Br)cc3)cc2)nc2ccc(F)cc2c1C(=O)O [Example 12] | – | 1 (≈ 2.29 µM) | response vs control in vivo at 50 mg/kg (L1210 leukemia; [3]): 261%
3 | Cc1ccc2nc(-c3ccc(-c4ccccc4)cc3)c(C)c(C(=O)O)c2c1Cl [Example 83] | – | > 1 | response vs control in vivo at 100 mg/kg (L1210 leukemia; [4]): 198%
4 | Cc1c(-c2ccc(SC(C)C)cc2)nc2ccc(F)cc2c1C(=O)O [Example 13] | – | 0.24 (≈ 0.675 µM) | response vs control in vivo at 400 mg/kg (L1210 leukemia; [3]): 129%
5 | Cc1c(-c2ccc(Oc3ccccc3)cc2)nc2ccc(F)cc2c1C(=O)O [Example 11] | 0.19 µg/mL | – | response vs control in vivo at 25 mg/kg (L1210 leukemia; [5]): 176%
6 | Cc1ccc(-c2ccc(-c3nc4ccc(F)c(Cl)c4c(C(=O)O)c3C)cc2)cc1 [Example 168] | – | 0.04 (≈ 0.0986 µM) | L1210 Leukemia % T/C (median survival time) (L1210 leukemia; 100 mg/kg i.p.): 148%
7 | CCCCCCc1ccc(-c2nc3ccc(F)cc3c(C(=O)O)c2C)cc1 [Example 180] | < 0.50 µg/mL | – | response vs control in vivo at 18 mg/kg (L1210 leukemia; Mus musculus, L1210, ip, 720 h, 18 mg/kg i.p., nonoptimal Q1DX9 instead of Q3DX9, read-out: L1210 Leukemia % T/C (median survival time)): 101%
8 | Cc1c(-c2ccc(Cc3ccccc3)cc2)nc2ccc(Cl)cc2c1C(=O)O [Example 112] | – | < 0.5 | response vs control in vivo at 25 mg/kg (L1210 leukemia; [5]): 128%
9 | Cc1c(-c2ccc(-c3ccccc3)cc2)nc2ccc(Br)cc2c1C(=O)O [Example 52] | – | < 0.5 | response vs control in vivo at 75 mg/kg (L1210 leukemia; [6]): 189%
10 | Cc1c(-c2cc(-c3ccccc3)cs2)nc2ccc(F)cc2c1C(=O)O [Example 44] | – | < 0.1 | response vs control in vivo at 100 mg/kg (L1210 leukemia; [4]): 136%
11 | O=C(O)c1cc(-c2ccc(C3CCCCC3)cc2)nc2ccc(Cl)cc12 [Example 94] | 0.65 µg/mL | – | response vs control in vivo at 100 mg/kg (L1210 leukemia; Mus musculus, L1210, ip, 720 h, 100 mg/kg i.p., nonoptimal Q1DX9 instead of Q3DX9, read-out: L1210 Leukemia % T/C (median survival time)): 107%
12 | Cc1cc2c(C(=O)O)c(C)c(-c3ccc(-c4ccccc4)cc3)nc2cc1Cl [Example 148] | > 5.00 µg/mL | – | response vs control in vivo at 37.5 mg/kg (L1210 leukemia; Mus musculus, L1210, ip, 720 h, 37.5 mg/kg i.p., nonoptimal Q1DX9 instead of Q3DX9, read-out: L1210 Leukemia % T/C (median survival time)): 102%
13 | Cc1ccc2c(C(=O)O)c(C)c(-c3ccc(-c4ccccc4)cc3)nc2c1 [Example 145] | – | < 0.5 | response vs control in vivo at 75 mg/kg (L1210 leukemia; [6]): 132%
14 | Cc1c(-c2ccc(Oc3ccccc3)cc2)nc2ccc(C(F)(F)F)cc2c1C(=O)O [Example 57] | – | < 0.5 | response vs control in vivo at 150 mg/kg (L1210 leukemia; Mus musculus, L1210, ip, 720 h, 150 mg/kg i.p., read-out: L1210 Leukemia % T/C (median survival time)): 197%
15 | Cc1c(-c2ccc(C3CCCCC3)cc2)nc2ccc(Cl)cc2c1C(=O)O [Example 93] | 0.06 µg/mL and 0.04 µg/mL | – | response vs control in vivo at 50 mg/kg (L1210 leukemia; [7]): 101%
16 | Cc1ccc2nc(-c3ccc(-c4ccccc4)cc3)c(C)c(C(=O)O)c2c1 [Example 14] | – | 0.38 (≈ 1.08 µM) | response vs control in vivo at 50 mg/kg (L1210 leukemia; [3]): 195%
17 | Cc1c(-c2ccc(-c3ccc(O)cc3)cc2)nc2ccc(Cl)cc2c1C(=O)O [Example 192, 6-Chloro-2-(4'-hydroxy-1,1'biphenyl-4-yl)-3-methyl-4-quinolinecarboxylic acid] | – | > 1 | response vs control in vivo at 200 mg/kg (L1210 leukemia; Mus musculus, L1210, ip, 720 h, 200 mg/kg i.p., read-out: L1210 Leukemia % T/C (median survival time)): 166%
18 | Cc1ccc(-c2ccc(-c3nc4ccc(F)cc4c(C(=O)O)c3C)cc2)cc1 [Example 30] | – | < 0.5 | response vs control in vivo at 300 mg/kg (L1210 leukemia; Mus musculus, L1210, ip, 720 h, 300 mg/kg i.p., read-out: L1210 Leukemia % T/C (median survival time)): 291%

Row | Structure (SMILES) | in vitro HCT-15 ID50 (50 percent inhibition of number of doublings) [1] | IC50 [1] [µg/mL] | further results
19 | Cc1c(-c2ccc(-c3cccc(F)c3)cc2)nc2ccc(F)cc2c1C(=O)O [Example 73] | – | < 0.1 | response vs control in vivo at 50 mg/kg (L1210 leukemia; [3]): 195%
20 | Cc1c(-c2ccc(-c3ccccc3)cc2)nc2cc(Cl)ccc2c1C(=O)O [Example 139] | < 5.00 µg/mL | – | response vs control in vivo at 100 mg/kg (L1210 leukemia; [4]): 146%
21 | CCc1c(-c2ccc(C3CCCCC3)cc2)nc2ccc(C)cc2c1C(=O)O [Example 105] | 0.33 µg/mL | – | response vs control in vivo at 12.5 mg/kg (L1210 leukemia; [7]): 108%
22 | COc1ccc(-c2ccc(-c3nc4ccc(Cl)cc4c(C(=O)O)c3C)cc2)cc1 [Example 114] | 1.30 µg/mL | – | response vs control in vivo at 50 mg/kg (L1210 leukemia; [7]): 121%
23 | Cc1c(-c2ccc(-c3ccc(F)cc3)cc2)nc2ccc(F)cc2c1C(=O)O [Example 31] | – | < 0.5 | L1210 Leukemia % T/C (median survival time) (L1210 leukemia; 37.5 mg/kg i.p.): 218%
24 | Cc1c(-c2ccc(-c3ccccc3)c(F)c2)nc2ccc(F)cc2c1C(=O)O [Example 210] | .03 µg/mL | – | L1210 Leukemia % T/C (median survival time) (L1210 leukemia; 25 mg/kg i.p.): 177%
25 | CCc1c(-c2ccc(-c3ccccc3)cc2)nc2ccc(F)cc2c1C(=O)O [Example 108] | 0.10 µg/mL | – | L1210 Leukemia % T/C (median survival time) (L1210 leukemia; 100 mg/kg i.p.): 166%
26 | CCc1ccc(-c2ccc(-c3nc4ccc(F)cc4c(C(=O)O)c3C)cc2)cc1 [Example 40] | – | > 1 | response vs control in vivo at 100 mg/kg (L1210 leukemia; [4]): 157%
27 | Cc1c(-c2ccc(Oc3ccccc3)cc2)nc2cc(Cl)ccc2c1C(=O)O [Example 50] | – | > 5 | response vs control in vivo at 100 mg/kg (L1210 leukemia; [4]): 131%
28 | Cc1c(-c2ccc(-c3ccccc3)cc2)nc2ccc(Cl)cc2c1C(=O)O [Example 171] | < 0.50 µg/mL | – | L1210 Leukemia % T/C (median survival time) (L1210 leukemia; 100 mg/kg i.p.): 164%
29 | COc1ccc(-c2ccc(-c3nc4ccc(Cl)cc4c(C(=O)O)c3C)cc2)cc1 [Example 24] | 0.28 µg/mL | – | response vs control in vivo at 400 mg/kg (L1210 leukemia; [3]): 154%
30 | CCc1ccc(-c2ccc(-c3nc4ccc(F)cc4c(C(=O)O)c3C)cc2)cc1 [Example 130] | > 1.0 µg/mL | – | response vs control in vivo at 50 mg/kg (L1210 leukemia; [3]): 132%
31 | Cc1c(-c2ccc(-c3ccc(Br)cc3)cc2)nc2ccc(F)cc2c1C(=O)O [Example 102] | 1.0 µg/mL and 1.9 µg/mL | – | response vs control in vivo at 12.5 mg/kg (L1210 leukemia; [3]): 164%
32 | CCCCCCCCCCc1ccc(-c2nc3ccc(F)cc3c(C(=O)O)c2C)cc1 [Example 97] | 0.14 µg/mL | – | response vs control in vivo at 25 mg/kg (L1210 leukemia; [2]): 110%
33 | Cc1c(-c2ccc(-c3ccccc3)c(F)c2)nc2ccc(F)cc2c1C(=O)O [Example 207] | – | 0.02 (≈ 0.0533 µM) | L1210 Leukemia % T/C (median survival time) (L1210 leukemia; 25 mg/kg i.p.): 154%
34 | CCc1ccc2nc(-c3ccc(-c4ccccc4)cc3)c(C)c(C(=O)O)c2c1 [Example 51] | – | < 0.5 | L1210 Leukemia % T/C (median survival time) (L1210 leukemia; 75 mg/kg i.p.): 173%
35 | Cc1c(-c2ccc(C3CCCCC3)cc2)nc2ccc(Br)cc2c1C(=O)O [Example 45] | 0.13 µg/mL | – | response vs control in vivo at 400 mg/kg (L1210 leukemia; [3]): 160%
